Results as given in the NIST ThermoML archive (doi:10.1016/j.fluid.2004.11.024).
Values joined by “and” are separate entries in the source; they are usually repeats but may differ in a detail not shown here. Equal values may be shown once. ± gives the expanded uncertainty stated by the source.

Conditions: Liquid, Transpiration method

CC(C)COc1ccccc1Br [1-bromo-2-isobutoxybenzene]
vapor or sublimation pressure (293.3 K): 0.00213 ± 0.00011 kPa | vapor or sublimation pressure (295.3 K): 0.00252 ± 0.00013 kPa | vapor or sublimation pressure (298.1 K): 0.00325 ± 0.00017 kPa | vapor or sublimation pressure (301.2 K): 0.00423 ± 0.00022 kPa | vapor or sublimation pressure (303.3 K): 0.00511 ± 0.00027 kPa | vapor or sublimation pressure (306.2 K): 0.00634 ± 0.00033 kPa | vapor or sublimation pressure (308.3 K): 0.00753 ± 0.0004 kPa | vapor or sublimation pressure (311.2 K): 0.00954 ± 0.0005 kPa | vapor or sublimation pressure (313.3 K): 0.01119 ± 0.00059 kPa | vapor or sublimation pressure (316.3 K): 0.01398 ± 0.00073 kPa | vapor or sublimation pressure (318.2 K): 0.01628 ± 0.00085 kPa | vapor or sublimation pressure (321.3 K): 0.02031 ± 0.001 kPa | vapor or sublimation pressure (323.2 K): 0.02325 ± 0.0012 kPa

CC(C)COc1cccc(Br)c1 [1-bromo-3-isobutoxybenzene]
vapor or sublimation pressure (290.2 K): 0.00145 ± 8e-05 kPa | vapor or sublimation pressure (293.3 K): 0.00194 ± 0.0001 kPa | vapor or sublimation pressure (295.2 K): 0.00232 ± 0.00012 kPa | vapor or sublimation pressure (298.1 K): 0.00301 ± 0.00016 kPa | vapor or sublimation pressure (301.1 K): 0.00389 ± 0.0002 kPa | vapor or sublimation pressure (303.2 K): 0.00465 ± 0.00025 kPa | vapor or sublimation pressure (306.2 K): 0.00607 ± 0.00032 kPa | vapor or sublimation pressure (308.1 K): 0.00703 ± 0.00037 kPa | vapor or sublimation pressure (311.3 K): 0.00909 ± 0.00048 kPa | vapor or sublimation pressure (313.2 K): 0.0106 ± 0.00056 kPa | vapor or sublimation pressure (316.1 K): 0.01312 ± 0.00069 kPa | vapor or sublimation pressure (318.3 K): 0.01567 ± 0.00082 kPa | vapor or sublimation pressure (321.3 K): 0.01929 ± 0.001 kPa | vapor or sublimation pressure (323.2 K): 0.02231 ± 0.0012 kPa

CC(C)COc1ccc(Br)cc1 [1-bromo-4-isobutoxybenzene]
vapor or sublimation pressure (293.2 K): 0.00151 ± 8e-05 kPa | vapor or sublimation pressure (298.3 K): 0.00242 ± 0.00013 kPa | vapor or sublimation pressure (301.2 K): 0.00304 ± 0.00016 kPa | vapor or sublimation pressure (303.2 K): 0.00351 ± 0.00019 kPa | vapor or sublimation pressure (306.2 K): 0.0048 ± 0.00025 kPa | vapor or sublimation pressure (308.4 K): 0.00538 ± 0.00028 kPa | vapor or sublimation pressure (311.3 K): 0.00687 ± 0.00036 kPa | vapor or sublimation pressure (313.3 K): 0.0081 ± 0.00043 kPa | vapor or sublimation pressure (316.2 K): 0.0101 ± 0.00053 kPa | vapor or sublimation pressure (318.3 K): 0.01175 ± 0.00062 kPa | vapor or sublimation pressure (321.3 K): 0.01498 ± 0.00078 kPa | vapor or sublimation pressure (323.2 K): 0.01699 ± 0.0009 kPa | vapor or sublimation pressure (326.3 K): 0.0224 ± 0.0012 kPa | vapor or sublimation pressure (328.2 K): 0.02634 ± 0.0014 kPa | vapor or sublimation pressure (331.2 K): 0.03352 ± 0.0018 kPa | vapor or sublimation pressure (333.2 K): 0.0391 ± 0.002 kPa

Cc1ccc(OCC(C)C)c(Br)c1 [2-bromo-1-isobutoxy-4-methylbenzene]
vapor or sublimation pressure (293.2 K): 0.0006 ± 3e-05 kPa | vapor or sublimation pressure (295.2 K): 0.00076 ± 4e-05 kPa | vapor or sublimation pressure (298.3 K): 0.00103 ± 5e-05 kPa | vapor or sublimation pressure (300.2 K): 0.0012 ± 6e-05 kPa | vapor or sublimation pressure (301.2 K): 0.00132 ± 7e-05 kPa | vapor or sublimation pressure (303.1 K): 0.0016 ± 8e-05 kPa | vapor or sublimation pressure (303.8 K): 0.00167 ± 9e-05 kPa | vapor or sublimation pressure (306.1 K): 0.00208 ± 0.00011 kPa | vapor or sublimation pressure (306.2 K): 0.00213 ± 0.00011 kPa | vapor or sublimation pressure (308.2 K): 0.00261 ± 0.00014 kPa | vapor or sublimation pressure (309.1 K): 0.00271 ± 0.00014 kPa | vapor or sublimation pressure (311.1 K): 0.00328 ± 0.00017 kPa | vapor or sublimation pressure (311.2 K): 0.00322 ± 0.00017 kPa | vapor or sublimation pressure (313.2 K): 0.00385 ± 0.00021 kPa | vapor or sublimation pressure (316.3 K): 0.00506 ± 0.00027 kPa | vapor or sublimation pressure (318.2 K): 0.00591 ± 0.00031 kPa | vapor or sublimation pressure (318.7 K): 0.00622 ± 0.00033 kPa | vapor or sublimation pressure (321.2 K): 0.00746 ± 0.00039 kPa | vapor or sublimation pressure (321.3 K): 0.00752 ± 0.0004 kPa and 0.00762 ± 0.0004 kPa | vapor or sublimation pressure (323.2 K): 0.00914 ± 0.00048 kPa and 0.00897 ± 0.00047 kPa and 0.00883 ± 0.00047 kPa | vapor or sublimation pressure (326.2 K): 0.01113 ± 0.00058 kPa | vapor or sublimation pressure (328.2 K): 0.01293 ± 0.00067 kPa
